This is an account of results in patent US5219825A, “Synergistic herbicidal compositions comprising herbicides which generate toxic oxygen radicals and chelating agents which inhibit their detoxification” (Yeda Research and Development Co., Ltd., priority 1986, dated 1993).

Some results are limits rather than exact numbers.

Assay [1] has as its system isolated Asparagus sprengeri cells. Nature of the assay: Chlorophyll loss in isolated cells (synergism at the cellular level). Format: cell-based. The conditions noted are these: for % of control chlorophyll: low light 305 μEin m^-2 s^-1. The protocol: Isolated cells offer an excellent rapid method of screening for phytotoxicity using a large number of potential chelators and synergists. Asparagus sprengeri cells were isolated from cladophylls of field grown plants using the procedure of Colman et al. (Can. J. Botany 57 1505, (1979)) except that the isolation, washing and culture buffer was 50 mM HEPES brought to pH 7.2 with KOH. The cladophylls were surface sterilized using 80% aqueous ethanol. After three centrifugations to remove broken cells, the cells were diluted to 10% packed volume and 0.75 ml were placed in each well of cluster dishes. The potential synergists in this example 0.02% w/v final concentration diethyldithiocarbamate (DDC) and an oxime of 4-octyl-2-acetyl-phenol (U.S. Pat. No. 4,215,219) which complex primarily with copper and di-2-ethylhexyl-phosphoric acid which complexes primarily with zinc (Flett, Chem and Ind. 17 706, (1977)) was placed with the herbicides atrazine and paraquat. All additions were made at 100 fold the final concentration of herbicide and synergist. Paraquat was dissolved in water and atrazine in methanol. The cluster dishes were incubated on a reciprocal shaker with a clear plastic bottom and illuminated from top and bottom with fluorescent lights emitting 135 μEin.m^-2 s^-1 (top) and 170 μEin.m^-2 s^-1 (bottom). The cells were kept mixed by the shaker and incubation was at room temperature. Incubation was stopped when there was visually obvious loss of chlorophyll due to treatments in a given experiment. The cells were removed to glass centrifugation tubes, centrifuged and the supernatant removed. One ml of 80% aqueous acetone was added to extract chlorophyll, the debris were sedimented by centrifugation and chlorophyll was spectrophotometrically determined at 645 and 663 nm according to Arnon (Plant Physiology 24 1, (1949)). […] In another experiment, a larger variety of chelating synergists and oxidant generating herbicides were used, and light was given at a much higher intensity 1000 μEin m^-2 s^-1 to better approach natural sunlight which is at 1200-1500 […].
Paraquat toxicity was measured 24 h after treatment and atrazine toxicity was measured 40 h after treatment.
Paraquat toxicity was measured 14 h after treatment.

Assay [2] relates to Conyza bonariensis high herbicide requiring biotype. The experiment in a line: Whole plant spray, visual rating. The class given is in vivo. From the text: (§1) Seeds of Conyza bonariensis were germinated and plants cultivated as outlined in Example 1. Other species were germinated in a similar mixture and treated at 10 days.
(§2) The commercial fungicides, maneb [manganese ethylene-bis(dithiocarbamate) (polymeric)] and zineb [zinc ethylene-bis (dithiocarbamate) (polymeric)] were used, they have similar structures and effects as DDC, but are blocked and act as chelate controls […] to clarify that a synergism would be due to the chelating effect of diethyldithiocarbamate. […] They could not chelate copper due to their being blocked.
(§3) ^a visual ratings (scored 1 day after treatment): 0 no damage to
(§4) slight burn; 1 moderate burn (may regenerate); 2 severe burn (will die)
(§5) Similarly, both the paraquat resistant and sensitive biotypes of Conyza bonariensis were treated with two other oxidant generating herbicides. Atrazine (of the triazine group) is the most widely used oxidant generating herbicides in agriculture. We used various dilutions of a commercial wettable powder (Atranex 50WP-Agan Chemicals) to which we added 0.5% DDC. The effects were scored 24 h later. […] We also tested to see whether acifluorfen, a nitro diphenyl ether herbicide would be synergized. It is generally agreed that light and oxygen are required for its action via oxidant damage. We sprayed a commercial formulation of acifluorfen (Blazer, Rohm and Haas) to which were added 0.25% Tween-20 detergent, with and without DDC. The effects were scored 24 h later.

Assay [3] concerns Conyza bonariensis low herbicide requiring biotype. The experiment in a line: Whole plant spray, visual rating. The class given is in vivo.
Source text: as §1, §2, §3, §4, §5

Assay [4] has as its system weed species. Conditions: cited from earlier work.
For assay [5], the system named is Biotypes of certain weed species. The conditions noted are these: cited from earlier work.
Assay [6] concerns Stellaria media. Nature of the assay: Whole plant spray, visual rating. Format: in vivo. The conditions noted are these: paraquat 30 μM spray to run-off, DDC 0.75% W/V where added, scored 1 day after treatment.
Source text: as §1, §3, §4

Assay [7] deals with Sinapsis arvense. The experiment in a line: Whole plant spray, visual rating. Format: in vivo. The conditions noted are these: paraquat 30 μM spray to run-off, DDC 0.75% W/V where added, scored 1 day after treatment.
Source text: as §1, §3, §4

The test system of assay [8] is Beans. The experiment in a line: Whole plant spray, visual rating. Format: in vivo. Conditions: paraquat 100 μM spray to run-off, DDC 0.75% W/V where added, scored 1 day after treatment.
Source text: as §1, §3, §4

In the case of `CCN(CC)C(=S)[S-].[Na+]` [DDC, Sodium diethyldithiocarbamate], the “% of control chlorophyll” value in assay [1] (no herbicide, DDC 0.02% alone, atrazine series, 40 h) is listed as 120 % of control; in assay [1] (no herbicide, DDC 0.02% alone, paraquat series, 24 h), 116 % of control. In addition, the visual ratings is reported as 0.6 in assay [2] (atrazine 0 μM, DDC 0.5% alone, high herbicide requiring biotype, scored one day after treatment) and 1.6 in assay [3] (atrazine 0 μM, DDC 0.5% alone, scored one day after treatment).
For the compound `C[n+]1ccc(-c2cc[n+](C)cc2)cc1` [paraquat, 1,1'-dimethyl-4-4'bipyridium ion], in assay [4] (Bromis inermis, Amaranthus retroflexus and wheat), the “rate at which species are killed” value is 0.01 kg/ha. Also, in assay [4] (Digitaria, Chenopodium album, Sinapis arvensis and Galium aparine), the “rate required for good control” value is reported as 3 kg/ha. Further, the “rate that does not kill resistant biotypes” value in assay [5] (biotypes that have evolved resistance to paraquat) is given as more than 16 kg/ha. Also, the “rate that controls the sensitive biotype” value in assay [5] (sensitive biotype of the same species) is 1 kg/ha. In addition, the “chlorophyll remaining - % of control” value in assay [1] (isolated cladophyll cells, 840 min) is given as 56 % of control; in assay [1] (paraquat 10 μM, Tetraethylene-pentamine 0.025% where added, 14 h, 1000 μEin m^-2 s^-1), 89 % of control; in assay [1] (paraquat 20 μM, 4-Octyl-2-acetyl-phenol oxime 0.125% where added, 14 h, 1000 μEin m^-2 s^-1), 74 % of control; in assay [1] (paraquat 20 μM, Pyridine-2,6-dicarboxylic acid 0.005% where added, 14 h, 1000 μEin m^-2 s^-1), 9 % of control; in assay [1] (paraquat 20 μM, di-2-ethyl-hexyl-phosphoric acid 0.001% where added, 14 h, 1000 μEin m^-2 s^-1), 72 % of control. Besides, the “% of control chlorophyll” value in assay [1] (paraquat 10^-6, DDC 0.02% where added, 24 h, 1 µM) is listed as 107 % of control. Further, the “effect of paraquat spray” value in assay [2] (1 mM spray of paraquat, paraquat resistant biotype) is “hardly affected”. Also, the visual rating amounted to 0.9 in assay [2] (paraquat 1000 μM spray to run-off, DDC 0.75% W/V where added, high herbicide requiring biotype, scored 1 day after treatment); 1.8 in assay [3] (paraquat 30 μM spray to run-off, DDC 0.75% W/V where added, scored 1 day after treatment); 0.5 in assay [6]; 0.5 in assay [7]; 1.5 in assay [8].
